For 8 molecules, GI50 and TGI results are on record in PubChem BioAssay (NCI).

Some test systems named below: MALME-3M melanoma; MCF7 breast; SF-295 CNS; SF-539 CNS; SF-268 CNS; SK-MEL-5 melanoma; ACHN renal; SK-MEL-2 melanoma; HOP-62 NSCLC; PC-3 prostate.
Holding throughout (experiment): NCI anticancer screen, dose series, 48 h

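Tested at 5 concentrations; 48 h exposure; 96-well plates; endpoints linearly interpolated, else capped at highest concentration. Here, GI50 denotes the concentration required for 50% inhibition of growth. TGI: total growth inhibition.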

As for `Clc1ccc(OCc2nnc3n2N=C(c2ccc(Cl)cc2Cl)CS3)c(Cl)c1`, the GI50 was 23.8 µM in the test with MALME-3M melanoma; 22.5 µM in the test on MCF7 breast; 23.9 µM in the test on SF-295 CNS; 18.7 µM in the test on SF-539 CNS; 22.9 µM with SF-268 CNS; 15.5 µM in the test on SK-MEL-5 melanoma. The GI50 in the test on ACHN renal is 20.5 µM; in the test with SK-MEL-2 melanoma, 25.1 µM; with HOP-62 NSCLC it was 27.8 µM; with PC-3 prostate it was 29.5 µM. In addition, the TGI turned out to be 79.7 µM with MALME-3M melanoma; 92.8 µM in the test with MCF7 breast; 79.7 µM with SF-295 CNS; 38.7 µM in the test on SF-539 CNS; 66.5 µM in the test on SF-268 CNS; 33 µM in the test on SK-MEL-5 melanoma. The TGI is 49.9 µM in the test on ACHN renal, 57 µM in the test on SK-MEL-2 melanoma, 78.6 µM with HOP-62 NSCLC and more than 100 µM with PC-3 prostate.
With `COc1ccc2c(-c3cc4ccccc4o3)cc(=O)oc2c1`, the TGI with MALME-3M melanoma is more than 100 µM; with MCF7 breast, more than 100 µM; in the test with SF-295 CNS, 79.7 µM; in the test on SF-539 CNS, 49.6 µM; in the test with SF-268 CNS, more than 94 µM; with SK-MEL-5 melanoma it was more than 100 µM. The TGI in the test on ACHN renal was more than 100 µM; in the test on SK-MEL-2 melanoma it was more than 100 µM; in the test on HOP-62 NSCLC, 46.7 µM; in the test with PC-3 prostate, more than 100 µM.
Consider `C[C@H]1CCC/C=C/[C@@H]2C[C@H](N)C[C@H]2[C@H](O)/C=C/C(=O)O1`, for which the GI50 in the test on MALME-3M melanoma is 52.8 µM; in the test with MCF7 breast, more than 100 µM; in the test with SF-295 CNS it was more than 100 µM; with SF-539 CNS, more than 100 µM; in the test on SF-268 CNS, more than 100 µM; with SK-MEL-5 melanoma it was 77.1 µM. Further, the GI50 with ACHN renal, with SK-MEL-2 melanoma, with HOP-62 NSCLC and in the test with PC-3 prostate was more than 100 µM each time. For the same molecule, the TGI in the test with MALME-3M melanoma, in the test with MCF7 breast, with SF-295 CNS, with SF-539 CNS, in the test with SF-268 CNS and in the test with SK-MEL-5 melanoma was more than 100 µM in each case. Also, the TGI with ACHN renal, with SK-MEL-2 melanoma, in the test on HOP-62 NSCLC and in the test with PC-3 prostate was more than 100 µM in each case.
Turning to `COc1cc2c3c(n(CCCN4CCC(N)CC4)c(=O)c2cc1OC)-c1cc2c(cc1C3=O)OCO2`, the GI50 with MALME-3M melanoma was 2.09 µM; with MCF7 breast it was 0.283 µM; in the test on SF-295 CNS it was 0.479 µM; with SF-539 CNS, 0.254 µM; with SF-268 CNS, 1.72 µM; in the test with SK-MEL-5 melanoma it was 1.84 µM. Also, the GI50 is 0.336 µM with ACHN renal, 3.68 µM in the test on SK-MEL-2 melanoma, 0.423 µM in the test with HOP-62 NSCLC and 0.302 µM in the test with PC-3 prostate. Further, the TGI in the test with MALME-3M melanoma stood at 9.89 µM; with MCF7 breast, 1.01 µM; in the test on SF-295 CNS, 1.36 µM; in the test on SF-539 CNS, 0.863 µM; in the test on SF-268 CNS it was 8.89 µM; in the test with SK-MEL-5 melanoma, 8.47 µM. Further, the TGI stood at 1.24 µM in the test on ACHN renal, 24.2 µM with SK-MEL-2 melanoma, 1.11 µM in the test on HOP-62 NSCLC and 2.11 µM in the test with PC-3 prostate.
Consider `CCN(CCO)CCNc1ccc(C)c2sc3cc(Cl)ccc3c(=O)c12`, for which the GI50 in the test with MALME-3M melanoma is 1.86 µM; in the test on MCF7 breast, 1.21 µM; in the test on SF-295 CNS, 1.61 µM; in the test on SF-539 CNS it was 1.73 µM; in the test on SF-268 CNS, 1.44 µM; with SK-MEL-5 melanoma, 1.54 µM. For the same molecule, the GI50 is 1.61 µM in the test with ACHN renal, 1.78 µM in the test on SK-MEL-2 melanoma, 1.5 µM in the test with HOP-62 NSCLC and 1.34 µM with PC-3 prostate. Besides, the TGI worked out at 3.51 µM with MALME-3M melanoma; 2.78 µM in the test with MCF7 breast; 3.19 µM in the test with SF-295 CNS; 3.43 µM in the test on SF-539 CNS; 3.04 µM with SF-268 CNS; 2.88 µM with SK-MEL-5 melanoma. Besides, the TGI in the test with ACHN renal stood at 3.19 µM; in the test on SK-MEL-2 melanoma, 3.56 µM; in the test with HOP-62 NSCLC, 2.95 µM; in the test on PC-3 prostate, 2.94 µM.
With `CCCCCC(=O)Oc1ccc(/C(=C(\C)c2ccc(OC)cc2)c2ccc(OCCN3CCCCC3)cc2)cc1`, the GI50 was 2.84 µM in the test on MALME-3M melanoma; 0.726 µM with MCF7 breast; 2.28 µM in the test on SF-295 CNS; 3.56 µM in the test on SF-539 CNS; 11.6 µM in the test with SF-268 CNS; 1.8 µM in the test on SK-MEL-5 melanoma. In addition, the GI50 was 10.7 µM in the test with ACHN renal, 10.5 µM with SK-MEL-2 melanoma, 5.73 µM with HOP-62 NSCLC and 5.65 µM in the test on PC-3 prostate. In addition, the TGI with MALME-3M melanoma is 10.4 µM; in the test on MCF7 breast, 14.4 µM; with SF-295 CNS, 6.32 µM; in the test on SF-539 CNS, 14 µM; in the test on SF-268 CNS, 26.9 µM; in the test on SK-MEL-5 melanoma, 3.57 µM. Moreover, the TGI in the test on ACHN renal was determined as 22.6 µM; in the test with SK-MEL-2 melanoma, 23.8 µM; in the test on HOP-62 NSCLC, 19.8 µM; in the test with PC-3 prostate, 18.7 µM.
`Cc1c(-c2nc(N)nc(C3CC3)c2C)nc(N)nc1C1CC1`: the TGI with MALME-3M melanoma, in the test with MCF7 breast, in the test on SF-295 CNS, in the test with SF-539 CNS, in the test with SF-268 CNS and in the test with SK-MEL-5 melanoma was more than 100 µM each time. The TGI in the test with ACHN renal, with SK-MEL-2 melanoma, with HOP-62 NSCLC and with PC-3 prostate was more than 100 µM each time.
For `CNC(=O)c1ccc(-c2cnc3ncc(Cc4ccc5ncccc5c4)n3n2)cc1F`, the GI50 is 62.7 µM in the test with MALME-3M melanoma; more than 100 µM in the test on MCF7 breast; 22.1 µM with SF-295 CNS; 54.1 µM in the test with SF-539 CNS; 83 µM with SF-268 CNS; more than 100 µM in the test on SK-MEL-5 melanoma. In addition, the GI50 is more than 100 µM in the test on ACHN renal, 97.1 µM in the test on SK-MEL-2 melanoma, 94.3 µM in the test on HOP-62 NSCLC and more than 100 µM in the test on PC-3 prostate. The TGI in the test with MALME-3M melanoma, with MCF7 breast, in the test on SF-295 CNS, in the test on SF-539 CNS, in the test on SF-268 CNS and in the test on SK-MEL-5 melanoma was more than 100 µM throughout. The TGI in the test on ACHN renal, with SK-MEL-2 melanoma, in the test with HOP-62 NSCLC and with PC-3 prostate was more than 100 µM in each case.
